Test results as given in ChEMBL document CHEMBL4152280, “Binding mechanism investigations guiding the synthesis of novel condensed 1,4-dihydropyridine derivatives with L-/T-type calcium channel blocking activity” (Eur J Med Chem, 2018).
Active and inactive are the calls of the source. No cut-off for these calls is given here.

Assays:
[1] = target: Voltage-dependent T-type calcium channel subunit alpha-1H (Homo sapiens) (UniProt O95180); assay: Inhibition of human Cav3.2 at 10 uM at -110 mV holding potential by patch clamp electrophysiology assay
[2] = target: Cav1.2 (voltage-dependent L-type calcium channel subunit alpha-1C) (Rattus norvegicus, UniProt P22002); assay: Inhibition of rat Cav1.2 at 10 uM at -90 mV holding potential by patch clamp electrophysiology assay relative to control
Cav1.2 (voltage-dependent L-type calcium channel subunit alpha-1C), sequence (P22002 whole entry): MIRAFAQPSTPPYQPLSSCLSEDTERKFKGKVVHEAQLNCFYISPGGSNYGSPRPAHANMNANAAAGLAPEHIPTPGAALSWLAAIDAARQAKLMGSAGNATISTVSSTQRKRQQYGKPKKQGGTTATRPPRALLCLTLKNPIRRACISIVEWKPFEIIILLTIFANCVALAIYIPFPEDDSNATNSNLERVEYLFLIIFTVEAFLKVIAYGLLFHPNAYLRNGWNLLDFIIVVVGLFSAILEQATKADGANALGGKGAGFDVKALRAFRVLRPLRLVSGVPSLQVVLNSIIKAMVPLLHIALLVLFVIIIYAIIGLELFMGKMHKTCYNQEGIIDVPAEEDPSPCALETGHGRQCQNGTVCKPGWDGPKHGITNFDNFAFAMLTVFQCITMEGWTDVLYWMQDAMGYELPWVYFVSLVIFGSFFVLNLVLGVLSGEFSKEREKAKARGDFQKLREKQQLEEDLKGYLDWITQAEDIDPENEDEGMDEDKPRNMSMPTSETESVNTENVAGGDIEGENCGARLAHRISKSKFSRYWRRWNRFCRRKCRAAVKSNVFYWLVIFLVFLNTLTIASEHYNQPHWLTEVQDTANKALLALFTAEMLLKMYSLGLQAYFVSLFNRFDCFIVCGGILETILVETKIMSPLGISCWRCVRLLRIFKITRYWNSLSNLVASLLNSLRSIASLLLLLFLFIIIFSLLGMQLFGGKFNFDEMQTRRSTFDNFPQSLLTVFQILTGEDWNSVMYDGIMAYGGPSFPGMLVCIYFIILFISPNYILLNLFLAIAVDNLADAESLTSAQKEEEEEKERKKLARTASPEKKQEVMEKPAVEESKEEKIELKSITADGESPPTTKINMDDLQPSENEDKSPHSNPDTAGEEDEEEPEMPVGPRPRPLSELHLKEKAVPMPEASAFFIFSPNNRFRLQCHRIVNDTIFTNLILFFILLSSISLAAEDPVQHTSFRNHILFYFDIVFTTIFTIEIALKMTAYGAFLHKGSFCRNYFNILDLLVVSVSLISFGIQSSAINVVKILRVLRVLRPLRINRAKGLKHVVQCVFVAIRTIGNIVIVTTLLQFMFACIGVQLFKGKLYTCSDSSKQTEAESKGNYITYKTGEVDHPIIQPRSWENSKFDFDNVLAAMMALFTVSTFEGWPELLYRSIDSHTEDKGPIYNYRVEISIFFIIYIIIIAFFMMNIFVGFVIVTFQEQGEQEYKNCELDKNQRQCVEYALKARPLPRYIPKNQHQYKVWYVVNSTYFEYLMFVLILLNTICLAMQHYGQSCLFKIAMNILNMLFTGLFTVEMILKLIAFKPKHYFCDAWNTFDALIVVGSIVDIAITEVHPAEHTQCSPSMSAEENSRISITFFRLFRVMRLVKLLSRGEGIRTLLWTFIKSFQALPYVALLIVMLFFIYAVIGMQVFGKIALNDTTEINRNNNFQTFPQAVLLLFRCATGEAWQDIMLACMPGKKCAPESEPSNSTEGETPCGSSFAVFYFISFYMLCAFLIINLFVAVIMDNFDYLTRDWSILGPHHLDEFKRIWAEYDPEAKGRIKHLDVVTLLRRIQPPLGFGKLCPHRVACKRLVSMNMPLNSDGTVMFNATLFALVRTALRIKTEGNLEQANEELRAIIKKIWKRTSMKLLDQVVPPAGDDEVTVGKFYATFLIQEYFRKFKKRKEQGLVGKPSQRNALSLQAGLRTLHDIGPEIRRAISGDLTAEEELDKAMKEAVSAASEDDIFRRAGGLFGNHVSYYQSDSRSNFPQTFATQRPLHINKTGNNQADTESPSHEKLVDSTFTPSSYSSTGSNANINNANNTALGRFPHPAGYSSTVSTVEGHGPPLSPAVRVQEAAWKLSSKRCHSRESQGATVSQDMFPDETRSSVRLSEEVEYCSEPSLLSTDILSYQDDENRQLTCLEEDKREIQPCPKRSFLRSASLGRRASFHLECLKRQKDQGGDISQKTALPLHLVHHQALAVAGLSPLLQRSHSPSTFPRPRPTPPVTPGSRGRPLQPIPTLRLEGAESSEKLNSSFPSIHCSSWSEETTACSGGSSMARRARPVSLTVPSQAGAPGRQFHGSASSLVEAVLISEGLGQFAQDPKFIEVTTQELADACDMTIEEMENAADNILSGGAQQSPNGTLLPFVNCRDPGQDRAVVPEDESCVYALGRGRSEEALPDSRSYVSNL

Voltage-dependent T-type calcium channel subunit alpha-1H (Homo sapiens), sequence (O95180 whole entry): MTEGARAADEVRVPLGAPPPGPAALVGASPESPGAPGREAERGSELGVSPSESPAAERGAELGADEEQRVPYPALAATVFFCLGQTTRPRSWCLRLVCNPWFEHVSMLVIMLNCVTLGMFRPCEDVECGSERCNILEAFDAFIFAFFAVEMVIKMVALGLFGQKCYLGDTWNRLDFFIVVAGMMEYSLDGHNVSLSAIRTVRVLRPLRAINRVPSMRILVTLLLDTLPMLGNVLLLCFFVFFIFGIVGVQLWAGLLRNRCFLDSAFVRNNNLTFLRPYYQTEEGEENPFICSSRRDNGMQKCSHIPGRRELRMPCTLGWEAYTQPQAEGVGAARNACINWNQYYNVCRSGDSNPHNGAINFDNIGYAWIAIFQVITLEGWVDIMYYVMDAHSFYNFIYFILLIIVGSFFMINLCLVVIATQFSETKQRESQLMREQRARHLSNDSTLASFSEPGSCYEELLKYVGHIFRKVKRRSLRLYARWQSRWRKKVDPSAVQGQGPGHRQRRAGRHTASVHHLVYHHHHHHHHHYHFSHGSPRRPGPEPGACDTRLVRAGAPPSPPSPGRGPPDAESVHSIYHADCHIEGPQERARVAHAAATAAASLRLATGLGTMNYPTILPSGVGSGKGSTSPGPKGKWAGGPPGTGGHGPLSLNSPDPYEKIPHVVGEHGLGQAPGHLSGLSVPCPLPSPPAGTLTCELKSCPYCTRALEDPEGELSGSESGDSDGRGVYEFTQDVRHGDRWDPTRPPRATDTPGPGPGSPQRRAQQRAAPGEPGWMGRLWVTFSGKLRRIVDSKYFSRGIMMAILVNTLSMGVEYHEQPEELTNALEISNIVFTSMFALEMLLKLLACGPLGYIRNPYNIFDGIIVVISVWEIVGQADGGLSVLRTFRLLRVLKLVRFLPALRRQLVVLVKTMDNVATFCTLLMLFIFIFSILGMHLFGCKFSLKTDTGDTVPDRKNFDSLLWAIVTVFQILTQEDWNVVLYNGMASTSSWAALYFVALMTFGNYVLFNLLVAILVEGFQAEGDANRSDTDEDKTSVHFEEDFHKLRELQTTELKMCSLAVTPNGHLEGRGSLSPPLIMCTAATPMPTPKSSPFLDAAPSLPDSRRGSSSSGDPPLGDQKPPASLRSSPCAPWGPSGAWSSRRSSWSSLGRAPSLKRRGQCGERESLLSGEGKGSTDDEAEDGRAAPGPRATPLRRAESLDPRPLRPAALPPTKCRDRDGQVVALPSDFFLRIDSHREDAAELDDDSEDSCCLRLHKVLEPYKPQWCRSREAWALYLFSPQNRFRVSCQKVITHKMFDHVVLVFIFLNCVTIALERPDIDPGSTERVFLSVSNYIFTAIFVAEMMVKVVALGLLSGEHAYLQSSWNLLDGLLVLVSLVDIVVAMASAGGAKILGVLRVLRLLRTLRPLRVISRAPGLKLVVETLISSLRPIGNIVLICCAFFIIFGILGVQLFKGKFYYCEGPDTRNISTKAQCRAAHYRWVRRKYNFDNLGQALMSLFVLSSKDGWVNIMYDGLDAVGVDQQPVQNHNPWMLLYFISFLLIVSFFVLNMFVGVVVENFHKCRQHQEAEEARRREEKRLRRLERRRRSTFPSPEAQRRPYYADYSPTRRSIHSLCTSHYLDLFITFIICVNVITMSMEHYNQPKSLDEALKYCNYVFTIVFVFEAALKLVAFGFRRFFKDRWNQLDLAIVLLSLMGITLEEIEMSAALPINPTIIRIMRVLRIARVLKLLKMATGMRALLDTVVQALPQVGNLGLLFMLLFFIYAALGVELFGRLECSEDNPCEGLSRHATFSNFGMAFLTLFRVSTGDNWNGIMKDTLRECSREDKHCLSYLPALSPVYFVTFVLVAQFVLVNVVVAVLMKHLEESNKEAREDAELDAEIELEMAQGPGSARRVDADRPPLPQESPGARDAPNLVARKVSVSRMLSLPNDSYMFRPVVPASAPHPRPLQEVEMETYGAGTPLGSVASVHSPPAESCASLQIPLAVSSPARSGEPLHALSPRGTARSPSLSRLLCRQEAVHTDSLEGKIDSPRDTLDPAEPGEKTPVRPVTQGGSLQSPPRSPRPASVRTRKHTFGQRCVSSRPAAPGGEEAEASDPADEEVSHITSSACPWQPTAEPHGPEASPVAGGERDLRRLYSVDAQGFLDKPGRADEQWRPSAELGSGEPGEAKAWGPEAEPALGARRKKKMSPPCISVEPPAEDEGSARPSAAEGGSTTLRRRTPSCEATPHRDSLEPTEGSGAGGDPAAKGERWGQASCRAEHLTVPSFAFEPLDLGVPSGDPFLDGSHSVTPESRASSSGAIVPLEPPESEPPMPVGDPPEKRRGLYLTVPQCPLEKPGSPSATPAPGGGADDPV

With `CCOC(=O)C1=C(C)NC2=C(C(=O)C(C)(C)CC2)C1c1ccc(O)c(C(F)(F)F)c1` (centres undefined) the inhibition [1] was “Active”.

In the case of `CC1=C(C(=O)OCC(C)C)C(c2ccc(O)c(C(F)(F)F)c2)C2=C(CCC(C)(C)C2=O)N1` (centres undefined), the inhibition [1] is reported as “Active”.

For `CC1=C(C(=O)OCC(C)C)C(c2cc([N+](=O)[O-])cc([N+](=O)[O-])c2O)C2=C(CCC(C)(C)C2=O)N1` (centres undefined), the inhibition [1] was “Active”.

`CC1=C(C(=O)OCC(C)C)C(c2cc(Br)cc([N+](=O)[O-])c2O)C2=C(CCC(C)(C)C2=O)N1` (centres undefined) gave an inhibition at 10 µM [2] of 10%.

With `COC(=O)C1=C(C)NC2=C(C(=O)C(C)(C)CC2)C1c1cc([N+](=O)[O-])ccc1O` (centres undefined) the inhibition at 10 µM [2] was less than 30%.

`CCOC(=O)C1=C(C)NC2=C(C(=O)C(C)(C)CC2)C1c1cc([N+](=O)[O-])ccc1O` (centres undefined) gave an inhibition at 10 µM [2] of 70%.

`CCOC(=O)C1=C(C)NC2=C(C(=O)C(C)(C)CC2)C1c1cc(Br)cc([N+](=O)[O-])c1O` (centres undefined) was tested, and the inhibition at 10 µM [2] was 50% and the inhibition [1] was “Active”.

Compound `CC1=C(C(=O)OCC(C)C)C(c2cc([N+](=O)[O-])ccc2O)C2=C(CC(C)(C)CC2=O)N1` (centres undefined) has an inhibition at 10 µM [2] of 30%.

`CC1=C(C(=O)OCc2ccccc2)C(c2cc([N+](=O)[O-])ccc2O)C2=C(CCC(C)(C)C2=O)N1` (centres undefined) gave an inhibition at 10 µM [2] of 70%.

`CC1=C(C(=O)OCC(C)C)C(c2cc([N+](=O)[O-])cc(Br)c2O)C2=C(CC(C)(C)CC2=O)N1` (centres undefined) gave an inhibition at 10 µM [2] of 70%.

In the case of `CC1=C(C(=O)OC(C)(C)C)C(c2cc([N+](=O)[O-])ccc2O)C2=C(CCC(C)(C)C2=O)N1` (centres undefined), the inhibition at 10 µM [2] is reported as less than 30%.

Compound `CC1=C(C(=O)OCC(C)C)C(c2cc([N+](=O)[O-])cc(Br)c2O)C2=C(CCC(C)(C)C2=O)N1` (centres undefined) has an inhibition at 10 µM [2] of 15%.

`CC1=C(C(=O)OCC(C)C)C(c2cc([N+](=O)[O-])ccc2O)C2=C(CCC(C)(C)C2=O)N1` (centres undefined) gave an inhibition at 10 µM [2] of 70%.
